{"source": "patent EP1939270B1", "about": "“Demetallation of oil and hydrocarbon cuts and use of same” (TOTAL RAFFINAGE MARKETING, priority 2006, dated 2008)", "key": {"[1]": {"test": "Demetallation of model mixture (DAO + NiETIO + OEPVO): catalysed oxidation, metal removal, residual vanadium by X-ray fluorescence", "details": "by mass", "text": "(§1) Le procédé de démétallation selon l'invention a été testé sur un mélange modèle de fractions pétrolières lourdes, composé d'un produit pétrolier ne contenant pas de nickel ni de vanadium, auxquelles ont été ajoutées des porphyrines modèles de nickel et de vanadium (exemples 1 à 4, 6 et 7).\n(§2) La fraction pétrolière utilisée dans les exemples (DAO) est une huile désasphaltée au solvant, issue d'un résidu sous vide du brut Safaniya d'Arabie Saoudite. Il s'agit donc d'un résidu sous vide dépourvu d'asphaltènes, et donc de pétroporphyrines, pauvre en nickel (<0,2 ppm) et en vanadium (<0,1 ppm).\n(§3) Les porphyrines modèles utilisées sont l'étioporphyrine de nickel (NiETIO) et l'octaéthylporphyrine de vanadyle (OEPVO), qui sont disponibles commercialement. Leurs formules sont les suivantes : [drawing 5] […]\n(§4) Les différentes fractions sont ensuite évaporées afin de recueillir la fraction pétrolière de 2,02 g (soit un bilan matière de 97 %) qui est ensuite analysée par spectrométrie à fluorescence X pour en déceler 31 ppm de nickel et 54 ppm de Vanadium. […]\n(§5) Les différentes fractions sont ensuite évaporées afin de recueillir la fraction pétrolière avec un bilan matière de 97% (en masse) et des teneurs en Nickel et Vanadium analysées par spectrométrie à fluorescence X de moins de 10 ppm (en masse). […]"}, "[2]": {"test": "Demetallation of model mixture (DAO + NiETIO + OEPVO): catalysed oxidation, metal removal, residual nickel by X-ray fluorescence", "details": "by mass", "text": "as §1, §2, §3, §4, §5"}}, "data": [{"smiles": "Clc1cccc(Cl)c1-c1c2nc(c(-c3c(Cl)cccc3Cl)c3ccc([n-]3)c(-c3c(Cl)cccc3Cl)c3nc(c(-c4c(Cl)cccc4Cl)c4ccc1[n-]4)C=C3)C=C2.[Mn+2]", "note": "[Exemple 4, méso-tétra-(2,6-dichloro) phényl porphyrinede manganèse]", "values": [{"measurement": "Après traitement V Taux d'élimination", "setting": "[1]", "result": "96,1%"}, {"measurement": "Après traitement Ni Taux d'élimination", "setting": "[2]", "result": "93,8%"}]}]}
